Experimental data from US20250250284A1, “MACROCYCLE COMPOUNDS USEFUL AS KRAS INHIBITORS” (Hoffmann-La Roche Inc., priority 2022, published 2025).

Key:
[1] = system: phosphorylation of ERK, KRAS G12C in NCI-H358 cells; assay: pERK inhibition assay, KRAS G12C; assay type: cell-based; conditions: Homo sapiens, 4 hours of incubation
Protocol: (§1) This assay is to measure the ability of test compounds in inhibiting the phosphorylation of ERK, the downstream signaling of KRAS G12C in NCI-H358 cells, KRAS G12D in AGS cells, and KRAS G12V in SW620. NCI-H358 (ATCC-CRL5807) cells, AGS (ATCC-CRL-1739) cells, SW620 (ATCC-CCL-227) cells were all grown and maintained using RPMI-1640 medium (Thermo Fisher Scientific) with 10% fetal bovine serum and 1% penicillin/streptomycin. On the day prior to compound addition, cells were plated in tissue culture-treated 96 well plates (Corning-3699) at a density of 30,000 cell/well, 20,000 cell/well, 30,000 cell/well for NCI-H358, AGS and SW620 respectively, and allowed for attachment overnight. Diluted compounds were then added in a final concentration of 0.5% DMSO. After 4 hours of incubation, the medium was removed, 100 μL of 4% formaldehyde was added, and the assay plates were incubated at room temperature for 20 minutes. The plates were then washed once with phosphate buffered saline (PBS), and permeabilized with 100 μL of chilled methanol for 10 minutes. Non-specific antibody binding to the plates was blocked using 50 μL 1×BSA blocking buffer (Thermo-37520, 10-fold dilution by Phosphate-Buffered Saline Tween (PBST) for at least 1 hour at room temperature.
(§2) The amount of phosphor-ERK was determined using an antibody specific for phosphorylated form of ERK. Primary antibody (pERK, CST-4370, Cell Signaling Technology) was diluted 1:300 in blocking buffer, with 50 μL aliquoted to each well, and incubated overnight at 4° C. Cells was washed five times for 5 minutes with PBST. Secondary antibody (HRP-linked anti-rabbit IgG, CST-7074, Cell Signaling Technology) was diluted 1:1000 in blocking buffer, and 50 μL was added to each well and incubated 1-2 hrs at room temperature. Cells was washed 5 times for 5 minutes with PBST, 100 μL TMB ELISA substrate (abcam-ab171523) were added and gently shake for 20 minutes. 50 μL stop solution (abcam-ab171529) were added, and then read the signal (OD450) by EnVision.
(§3) IC50 was determined by fitting a 4-parameter sigmoidal concentration response model.

[2] = system: phosphorylation of ERK, KRAS G12V in SW620; assay: pERK inhibition assay, KRAS G12V; assay type: cell-based; conditions: Homo sapiens, SW-620; SW620 cells, 4 hours of incubation
Protocol: as §1, §2, §3

[3] = system: NCI-H358 cells; assay: Cell viability assay (Cell Counting Kit-8), KRAS G12C; assay type: cell-based; conditions: Homo sapiens, 72 hrs incubation, CCK-8
Protocol: (§4) The purpose of this cellular assay was to determine the effects of test compounds on the proliferation of human cancer cell lines NCI-H358 (ATCC-CRL5807) cells, AGS (ATCC-CRL-1739) cells, SW620 (ATCC-CCL-227) over a 3-day treatment period by quantifying the amount of NADPH present at endpoint using Cell Counting Kit-8.
(§5) Cells were seeded at 5,000 cells/well (NCI-H358), 2,000 cells/well (AGS) 2,000 cells/well (SW620) in 96-well assay plates (Corning-3699) and incubated overnight. On the day of the assay, diluted compounds were then added in a final concentration of 0.5% DMSO. After 72 hrs incubation, a tenth of the volume of cell counting kit 8 (Dnjindo-CK04) was added into each well. Read the signal (OD450 minus OD650) using EnVision after 2 hrs incubation. IC50 was determined by fitting a 4-parameter sigmoidal concentration response model.

[4] = system: phosphorylation of ERK, KRAS G12D in AGS cells; assay: pERK inhibition assay, KRAS G12D; assay type: cell-based; conditions: Homo sapiens, 4 hours of incubation
Protocol: as §1, §2, §3

[5] = system: SW620 cells; assay: Cell viability assay (Cell Counting Kit-8), KRAS G12V; assay type: cell-based; conditions: Homo sapiens, SW-620, 72 hrs incubation, CCK-8
Protocol: as §4, §5

[6] = system: AGS cells; assay: Cell viability assay (Cell Counting Kit-8), KRAS G12D; assay type: cell-based; conditions: Homo sapiens, 72 hrs incubation, CCK-8
Protocol: as §4, §5

[7] = biological target: KRAS G12V binding to BRAF (Homo sapiens (Human), UniProt P01116+P62937, G12V); assay: KRAS-BRAF with CYPA (500 nM) interaction assay (TR-FRET), G12V; conditions: GMPPNP loaded 6His-KRAS, GST-BRAF RBD, 3 hours
Chain of KRAS G12V binding to BRAF (P01116-2 other isoform, or with tags, fused parts or gaps G12V): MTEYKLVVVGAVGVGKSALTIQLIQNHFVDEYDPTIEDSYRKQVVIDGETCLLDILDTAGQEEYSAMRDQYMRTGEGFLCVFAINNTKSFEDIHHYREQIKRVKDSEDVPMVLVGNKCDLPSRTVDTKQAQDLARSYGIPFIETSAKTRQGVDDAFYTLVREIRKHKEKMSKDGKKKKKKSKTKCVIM
Chain of KRAS G12V binding to BRAF (P62937 whole entry): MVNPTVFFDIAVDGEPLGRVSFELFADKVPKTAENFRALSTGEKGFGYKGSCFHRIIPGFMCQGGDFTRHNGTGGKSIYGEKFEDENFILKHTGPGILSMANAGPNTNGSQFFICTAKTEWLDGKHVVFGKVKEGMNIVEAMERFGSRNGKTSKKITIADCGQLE
Protocol: (§6) KRAS-BRAF with CYPA (500 nM) Interaction Assay
(§7) In this example, TR-FRET was also used to measure the compound or compound-CYPA dependent disruption of the KRAS G12C-BRAF complex. This protocol was also used to measure disruption of KRAS G12D or KRAS G12V binding to BRAF by a compound of the invention, respectively. In assay buffer containing 25 mM HEPES PH=7.4 (4-(2-hydroxyethyl)-1-piperazineethanesulfonic acid, Thermo, 15630080), 0.002% Tween20, 0.1% BSA, 100 mM NaCl, 5 mM MgCl2, 10 μM GMPPNP (Guanosine 5′-[β,γ-imido]triphosphate trisodium salt hydrate, Sigma, G0635), tagless CYPA, GMPPNP loaded 6His-KRAS proteins, and GST-BRAF^RBD were mixed in a well of a 384-well assay plate at final concentrations of 50 nM, 6.25 nM and 1 nM, respectively. Compound was present in plate wells as a 16-point 3-fold dilution series starting at a final concentration of 10 μM and incubated for 3 hours. A mixture of MAb Anti-6His-XL665 (Cisbio, 61HISXLB) and Mab anti-GST-TB cryptate (Cisbio, 61GSTTLB) was then added at a final concentration of 6.67 nM and 0.21 nM, respectively, and the plate was incubated for an additional 1.5 hours. TR-FRET signal was read on a PHERstar FSX microplate reader (Ex320 nm, Em 665/615 nm). Compounds that facilitate disruption of the KRAS-BRAF complex were identified as those eliciting a decrease in the TR-FRET ratio relative to DMSO control wells.

[8] = biological target: KRAS G12D binding to BRAF (Homo sapiens (Human), UniProt P01116+P62937, G12D); assay: KRAS-BRAF with CYPA (500 nM) interaction assay (TR-FRET), G12D; conditions: GMPPNP loaded 6His-KRAS, GST-BRAF RBD, 3 hours
Chain of KRAS G12D binding to BRAF (P01116-2 other isoform, or with tags, fused parts or gaps G12D): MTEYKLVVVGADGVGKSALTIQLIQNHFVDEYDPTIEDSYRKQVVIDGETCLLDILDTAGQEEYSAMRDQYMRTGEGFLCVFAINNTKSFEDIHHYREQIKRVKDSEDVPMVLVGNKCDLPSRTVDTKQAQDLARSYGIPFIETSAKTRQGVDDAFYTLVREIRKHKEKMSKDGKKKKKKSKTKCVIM
Chain of KRAS G12D binding to BRAF (P62937 whole entry): as the sequence (P62937 whole entry) above
Protocol: as §6, §7

[9] = biological target: KRAS G12C-BRAF complex (Homo sapiens (Human), UniProt P01116+P62937, G12C); assay: KRAS-BRAF with CYPA (500 nM) interaction assay (TR-FRET), G12C; assay type: binding; conditions: GMPPNP loaded 6His-KRAS, GST-BRAF RBD, 3 hours
Chain of KRAS G12C-BRAF complex (P01116-2 other isoform, or with tags, fused parts or gaps G12C): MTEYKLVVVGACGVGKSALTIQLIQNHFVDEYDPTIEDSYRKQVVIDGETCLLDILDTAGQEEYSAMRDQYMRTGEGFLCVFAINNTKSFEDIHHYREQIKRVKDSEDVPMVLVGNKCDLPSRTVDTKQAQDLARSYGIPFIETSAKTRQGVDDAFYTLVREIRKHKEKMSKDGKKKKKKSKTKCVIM
Chain of KRAS G12C-BRAF complex (P62937 whole entry): as the sequence (P62937 whole entry) above
Protocol: as §6, §7

Compound | IC50 [1] | IC50 [2] | IC50 [3] | IC50 [4] | IC50 [5] | IC50 [6] | IC50 [7] | IC50 [8] | IC50 [9]
CCn1c(-c2cc(N3CCN(C)CC3)cnc2[C@H](C)OC)c2c3cc(c(F)cc31)-c1csc(n1)C[C@H](NC(=O)[C@H]1C[C@@H]1C#N)C(=O)N1CCC[C@H](N1)C(=O)OCC(C)(C)C2 [Example 5, (1S,2S)-2-cyano-N-[(7S,13S)-21-ethyl-24-fluoro-(20M)-20-[2-[(1S)-1-methoxyethyl]-5-(4-methylpiperazin-1-yl)-3-pyridyl]-17,17-dimethyl-8,14-dioxo-15-oxa-4-thia-9,21,27,28-tetrazapentacyclo[17.5.2.1^2,5.1^9,13.0^22,26]octacosa-1(25),2,5(28),19,22(26),23-hexaen-7-yl]cyclopropanecarboxamide] | 0.057 µM | 0.013 µM | 0.023 µM | 0.056 µM | 0.012 µM | 0.089 µM |  |  | 
CCn1c(-c2cc(N3CCN(C)CC3)cnc2[C@H](C)OC)c2c3cc(c(F)cc31)-c1csc(n1)C[C@H](NC(=O)[C@H]1[C@@H]3COC[C@@H]31)C(=O)N1CCC[C@H](N1)C(=O)OCC(C)(C)C2 (atropisomer, axis not shown; (M)) [Example 2, (1R,5S)—N-[(7S,13S)-21-ethyl-24-fluoro-(20M)-20-[2-[(1S)-1-methoxyethyl]-5-(4-methylpiperazin-1-yl)-3-pyridyl]-17,17-dimethyl-8,14-dioxo-15-oxa-4-thia-9,21,27,28-tetrazapentacyclo[17.5.2.1^2,5.1^9,13.0^22,26]octacosa-1(25),2,5(28),19,22(26),23-hexaen-7-yl]-3-oxabicyclo[3.1.0]hexane-6-carboxamide] | 0.009 µM | 0.003 µM | 0.011 µM | 0.018 µM | 0.005 µM | 0.059 µM | 0.174 µM | 0.957 µM | 0.134 µM
CCn1c(-c2cc(N3CCN(C)CC3)cnc2[C@H](C)OC)c2c3cc(c(F)cc31)-c1csc(n1)C[C@H](NC(=O)[C@H]1C[C@@H]1C(F)F)C(=O)N1CCC[C@H](N1)C(=O)OCC(C)(C)C2 (atropisomer, axis not shown; (M)) [Example 3, (1S,2S)-2-(difluoromethyl)-N-[(7S,13S)-21-ethyl-24-fluoro-(20M)-20-[2-[(1S)-1-methoxyethyl]-5-(4-methylpiperazin-1-yl)-3-pyridyl]-17,17-dimethyl-8,14-dioxo-15-oxa-4-thia-9,21,27,28-tetrazapentacyclo[17.5.2.1^2,5.1^9,13.0^22,26]octacosa-1(25),2,5(28),19,22(26),23-hexaen-7-yl]cyclopropanecarboxamide] | 0.011 µM | 0.005 µM | 0.0116 µM | 0.029 µM | 0.008 µM | 0.197 µM | 0.243 µM | 1.72 µM | 0.196 µM
CCn1c(-c2cc(N3CCN(C)CC3)cnc2[C@H](C)OC)c2c3cc(c(F)cc31)-c1csc(n1)C[C@H](NC(=O)[C@@H]1C[C@H]1C#N)C(=O)N1CCC[C@H](N1)C(=O)OCC(C)(C)C2 [Example 6, (1R,2R)-2-cyano-N-[(7S,13S)-21-ethyl-24-fluoro-(20M)-20-[2-[(1S)-1-methoxyethyl]-5-(4-methylpiperazin-1-yl)-3-pyridyl]-17,17-dimethyl-8,14-dioxo-15-oxa-4-thia-9,21,27,28-tetrazapentacyclo[17.5.2.1^2,5.1^9,13.0^22,26]octacosa-1(25),2,5(28),19,22(26),23-hexaen-7-yl]cyclopropanecarboxamide] | 0.079 µM | 0.025 µM | 0.079 µM | 0.116 µM | 0.035 µM | 0.316 µM |  |  | 

Second part, led by results:

IC50 [1] | IC50 [2] | IC50 [3] | IC50 [4] | IC50 [5] | IC50 [6] | Compound | IC50 [7] | IC50 [8] | IC50 [9]
0.033 µM | 0.009 µM | 0.011 µM | 0.053 µM | 0.016 µM | 0.244 µM | CO[C@@H](C)c1ncc(N2CCOCC2)cc1-c1c2c3cc(c(F)cc3n1CC(F)(F)F)-c1csc(n1)C[C@H](NC(=O)[C@H]1C[C@@H]1C)C(=O)N1CCC[C@H](N1)C(=O)OCC(C)(C)C2 (atropisomer, axis not shown; (M)) [Example 12, (1S,2S)—N-[(7S,13S)-24-fluoro-(20M)-20-[2-[(1S)-1-methoxyethyl]-5-morpholino-3-pyridyl]-17,17-dimethyl-8,14-dioxo-21-(2,2,2-trifluoroethyl)-15-oxa-4-thia-9,21,27,28-tetrazapentacyclo[17.5.2.1^2,5.1^9,13.0^22,26]octacosa-1(25),2,5(28),19,22(26),23-hexaen-7-yl]-2-methyl-cyclopropanecarboxamide] |  |  | 
0.021 µM | 0.007 µM | 0.005 µM | 0.028 µM | 0.007 µM | 0.111 µM | CCn1c(-c2cc(N3CCOCC3)cnc2[C@H](C)OC)c2c3cc(c(F)cc31)-c1csc(n1)C[C@H](NC(=O)[C@H]1C[C@@H]1C(F)F)C(=O)N1CCC[C@H](N1)C(=O)OCC(C)(C)C2 (atropisomer, axis not shown; (M)) [Example 11, (1S,2S)-2-(difluoromethyl)-N-[(7S,13S)-21-ethyl-24-fluoro-(20M)-20-[2-[(1S)-1-methoxyethyl]-5-morpholino-3-pyridyl]-17,17-dimethyl-8,14-dioxo-15-oxa-4-thia-9,21,27,28-tetrazapentacyclo[17.5.2.1^2,5.1^9,13.0^22,26]octacosa-1(25),2,5(28),19,22(26),23-hexaen-7-yl]cyclopropanecarboxamide] |  |  | 
